Measured values from patent US20250382305A1 (PTC THERAPEUTICS, INC., priority 2022, published 2025).

What was measured:
[1] = tested on: Total ATXN3 (tATXN3) protein; test: Endogenous Total ATXN3 (tATXN3) Protein Assay (MSD immunoassay of cell lysates); format: cell-based; details: average IC50, total ATXN3 protein in cell lysate after 48 h with compound (Table 1)
Outline: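 Cells in DMEM/10% FBS were plated at 10,000 per well onto 7-point, 3.16-fold compound dilutions in duplicate for 48 h at 37° C, then lysed. Total ATXN3 in lysates was measured by MSD sandwich immunoassay: mouse anti-ATXN3 capture, rabbit anti-ATXN3 detection, SULFO-TAG anti-rabbit. Average IC50 was reported in star bins.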

ATXN3 pre-mRNA = test: RT-qPCR Assay to Quantify Exon 4 Skipping in ATXN3 pre-mRNA in Cells; format: cell-based; details: percent exon 4 skipping in ATXN3 pre-mRNA, RT-qPCR of cell lysates; average IC50
Outline: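 Cells plated at 10,000/well onto a 7-point, 3.16-fold DMSO dilution series (duplicates), incubated 24 h at 37 °C, then lysed. Exon 4 skipping measured by one-step RT-qPCR (48 °C RT, 40 cycles); IC50 interpolated from dose-response fit of percent skipping.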

Work on `N[C@@H]1CC=CC[C@H]1c1c(I)c2nc(Cl)nc(NCc3ccco3)c2n1C(F)F` [Compound 379, 6-((1R,6R)-6-aminocyclohex-3-en-1-yl)-2-chloro-5-(difluoromethyl)-N-(furan-2-ylmethyl)-7-iodo-5H-pyrrolo[3,2-d]pyrimidin-4-amine] yielded an IC50 [1] of 0.03 to 0.3 µM and an IC50 (ATXN3 pre-mRNA) of 0.03 to 0.3 µM.
Work on `N[C@@H]1CC=CC[C@H]1c1sc2c(NCc3nccs3)cc(Cl)nc2c1Cl` [Compound 380, 2-((1R,6R)-6-aminocyclohex-3-en-1-yl)-3,5-dichloro-N-(thiazol-2-ylmethyl)thieno[3,2-b]pyridin-7-amine] yielded an IC50 [1] of 0.03 to 0.3 µM and an IC50 (ATXN3 pre-mRNA) of 0.03 to 0.3 µM.
`Cc1c([C@@H]2CC=CC[C@H]2N)sc2c(NCc3ccco3)cc(Cl)nc12` [Compound 382, 2-((1R,6R)-6-aminocyclohex-3-en-1-yl)-5-chloro-N-(furan-2-ylmethyl)-3-methylthieno[3,2-b]pyridin-7-amine] gave an IC50 [1] of 0.03 to 0.3 µM and an IC50 (ATXN3 pre-mRNA) of 0.03 to 0.3 µM.
`Cn1c([C@@H]2CCOC[C@H]2N)c(Br)c2nc(Cl)cc(NCc3cccs3)c21` [Compound 384, 2-((3S,4R)-3-aminotetrahydro-2H-pyran-4-yl)-3-bromo-5-chloro-1-methyl-N-(thiophen-2-ylmethyl)-1H-pyrrolo[3,2-b]pyridin-7-amine] gave an IC50 [1] of 0.03 to 0.3 µM and an IC50 (ATXN3 pre-mRNA) of 0.03 to 0.3 µM.
In the case of `N[C@@H]1CC=CC[C@H]1c1sc2c(NCc3cccs3)nc(Cl)nc2c1Br` [Compound 385, 6-((1R,6R)-6-aminocyclohex-3-en-1-yl)-7-bromo-2-chloro-N-(thiophen-2-ylmethyl)thieno[3,2-d]pyrimidin-4-amine], the IC50 [1] is reported as 0.03 to 0.3 µM and the IC50 (ATXN3 pre-mRNA) is reported as 0.03 to 0.3 µM.
In the case of `CC#CCNc1cc(Cl)nc2c(I)c([C@@H]3CC=CC[C@H]3N)sc12` [Compound 386, 2-((1R,6R)-6-aminocyclohex-3-en-1-yl)-N-(but-2-yn-1-yl)-5-chloro-3-iodothieno[3,2-b]pyridin-7-amine], the IC50 [1] is reported as 0.03 to 0.3 µM and the IC50 (ATXN3 pre-mRNA) is reported as 0.03 to 0.3 µM.
`N[C@@H]1CCOC[C@H]1c1sc2c(NCc3ccco3)cc(Cl)nc2c1Cl` [Compound 389, 2-((3S,4R)-4-aminotetrahydro-2H-pyran-3-yl)-3,5-dichloro-N-(furan-2-ylmethyl)thieno[3,2-b]pyridin-7-amine] gave an IC50 [1] of 0.3 to 1 µM and an IC50 (ATXN3 pre-mRNA) of 0.3 to 1 µM.
With `N[C@@H]1CCCC[C@H]1c1c(I)c2nc(Cl)nc(NCc3ccco3)c2n1C(F)F` [Compound 391, 6-((1R,2R)-2-aminocyclohexyl)-2-chloro-5-(difluoromethyl)-N-(furan-2-ylmethyl)-7-iodo-5H-pyrrolo[3,2-d]pyrimidin-4-amine] the IC50 [1] was 0.3 to 1 µM and the IC50 (ATXN3 pre-mRNA) was 0.3 to 1 µM.
`COc1ncccc1C#Cc1c([C@H]2CC=CC[C@@H]2N)sc2c(NCc3cccs3)cc(Cl)nc12` [Compound 394, 2-((1S,6S)-6-aminocyclohex-3-en-1-yl)-5-chloro-3-((2-methoxypyridin-3-yl)ethynyl)-N-(thiophen-2-ylmethyl)thieno[3,2-b]pyridin-7-amine] showed an IC50 [1] of 0.3 to 1 µM and an IC50 (ATXN3 pre-mRNA) of 0.3 to 1 µM.
`N[C@H]1CC=CC[C@@H]1c1sc2c(NCc3cccs3)cc(Cl)nc2c1C#Cc1ccncc1` [Compound 395, 2-((1S,6S)-6-aminocyclohex-3-en-1-yl)-5-chloro-3-(pyridin-4-ylethynyl)-N-(thiophen-2-ylmethyl)thieno[3,2-b]pyridin-7-amine] was tested, and the IC50 [1] was 0.3 to 1 µM and the IC50 (ATXN3 pre-mRNA) was 0.03 to 0.3 µM.
Work on `N[C@@H]1CC=CC[C@H]1c1sc2c(NCc3ccco3)nc(Cl)nc2c1Br` [Compound 396, 6-((1R,6R)-6-aminocyclohex-3-en-1-yl)-7-bromo-2-chloro-N-(furan-2-ylmethyl)thieno[3,2-d]pyrimidin-4-amine] yielded an IC50 [1] of 0.3 to 1 µM and an IC50 (ATXN3 pre-mRNA) of 0.03 to 0.3 µM.
Compound `CC#CCNc1cc(Cl)nc2c(Br)c([C@H]3CCOC[C@@H]3N)sc12` [Compound 398, 2-((3R,4S)-3-aminotetrahydro-2H-pyran-4-yl)-3-bromo-N-(but-2-yn-1-yl)-5-chlorothieno[3,2-b]pyridin-7-amine] has an IC50 [1] of 0.3 to 1 µM and an IC50 (ATXN3 pre-mRNA) of 0.03 to 0.3 µM.
In the case of `Cc1c([C@H]2CC=CC[C@@H]2N)n(C(F)F)c2c(NCc3ccccc3)nc(Cl)nc12` [Compound 399, 6-((1S,6S)-6-aminocyclohex-3-en-1-yl)-N-benzyl-2-chloro-5-(difluoromethyl)-7-methyl-5H-pyrrolo[3,2-d]pyrimidin-4-amine], the IC50 [1] is reported as 0.3 to 1 µM and the IC50 (ATXN3 pre-mRNA) is reported as 0.3 to 1 µM.
Work on `Cc1c([C@@H]2CCCC[C@H]2N)sc2c(NCc3ccco3)cc(Cl)nc12` [Compound 401, 2-((1R,2R)-2-aminocyclohexyl)-5-chloro-N-(furan-2-ylmethyl)-3-methylthieno[3,2-b]pyridin-7-amine] yielded an IC50 [1] of over 1 µM and an IC50 (ATXN3 pre-mRNA) of 0.3 to 1 µM.
Work on `N[C@@H]1CC=CC[C@H]1c1sc2c(NCc3ccccc3)cc(Cl)nc2c1Br` [Compound 403, 2-((1R,6R)-6-aminocyclohex-3-en-1-yl)-N-benzyl-3-bromo-5-chlorothieno[3,2-b]pyridin-7-amine] yielded an IC50 [1] of 0.3 to 1 µM and an IC50 (ATXN3 pre-mRNA) of 0.03 to 0.3 µM.
`N[C@@H]1CC=CC[C@H]1c1sc2c(NCc3ccccc3)cc(Cl)nc2c1Cl` [Compound 404, 2-((1R,6R)-6-aminocyclohex-3-en-1-yl)-N-benzyl-3,5-dichlorothieno[3,2-b]pyridin-7-amine] gave an IC50 [1] of 0.03 to 0.3 µM and an IC50 (ATXN3 pre-mRNA) of 0.03 to 0.3 µM.
Compound `N[C@@H]1CCOC[C@H]1c1sc2c(NCc3cccs3)cc(Cl)nc2c1Cl` [Compound 405, 2-((3S,4R)-4-aminotetrahydro-2H-pyran-3-yl)-3,5-dichloro-N-(thiophen-2-ylmethyl)thieno[3,2-b]pyridin-7-amine] has an IC50 [1] of at most 0.03 µM and an IC50 (ATXN3 pre-mRNA) of at most 0.03 µM.
For `N[C@@H]1CCOC[C@H]1c1sc2c(NCc3ccccc3)cc(Cl)nc2c1Cl` [Compound 406, 2-((3S,4R)-4-aminotetrahydro-2H-pyran-3-yl)-N-benzyl-3,5-dichlorothieno[3,2-b]pyridin-7-amine], the IC50 [1] was 0.03 to 0.3 µM and the IC50 (ATXN3 pre-mRNA) was at most 0.03 µM.
Compound `N[C@@H]1COCC[C@H]1c1sc2c(NCc3nccs3)cc(Cl)nc2c1Cl` [Compound 407, 2-((3S,4R)-3-aminotetrahydro-2H-pyran-4-yl)-3,5-dichloro-N-(thiazol-2-ylmethyl)thieno[3,2-b]pyridin-7-amine] has an IC50 [1] of 0.03 to 0.3 µM and an IC50 (ATXN3 pre-mRNA) of 0.03 to 0.3 µM.
Compound `N[C@@H]1COCC[C@H]1c1sc2c(NCc3nccs3)cc(Cl)nc2c1I` [Compound 408, 2-((3S,4R)-3-aminotetrahydro-2H-pyran-4-yl)-5-chloro-3-iodo-N-(thiazol-2-ylmethyl)thieno[3,2-b]pyridin-7-amine] has an IC50 [1] of 0.03 to 0.3 µM and an IC50 (ATXN3 pre-mRNA) of 0.03 to 0.3 µM.
Work on `N[C@@H]1CCCC(F)(F)[C@H]1c1sc2c(NCc3cccs3)cc(Cl)nc2c1Cl` [Compound 409, 2-((1S,6R)-6-amino-2,2-difluorocyclohexyl)-3,5-dichloro-N-(thiophen-2-ylmethyl)thieno[3,2-b]pyridin-7-amine] yielded an IC50 [1] of 0.03 to 0.3 µM and an IC50 (ATXN3 pre-mRNA) of 0.03 to 0.3 µM.
In the case of `N[C@@H]1COCC[C@H]1c1sc2c(NCc3ccco3)cc(Cl)nc2c1Cl` [Compound 410, 2-((3S,4R)-3-aminotetrahydro-2H-pyran-4-yl)-3,5-dichloro-N-(furan-2-ylmethyl)thieno[3,2-b]pyridin-7-amine], the IC50 [1] is reported as 0.03 to 0.3 µM and the IC50 (ATXN3 pre-mRNA) is reported as 0.03 to 0.3 µM.
For `N[C@@H]1CC=CC[C@H]1c1sc2c(NCc3ccccc3F)cc(Cl)nc2c1Br` [Compound 411, 2-((1R,6R)-6-aminocyclohex-3-en-1-yl)-3-bromo-5-chloro-N-(2-fluorobenzyl)thieno[3,2-b]pyridin-7-amine], the IC50 [1] was 0.03 to 0.3 µM and the IC50 (ATXN3 pre-mRNA) was 0.03 to 0.3 µM.
